Tests used:
[1] = In vivo clearance of ligand; settings: male, C57BL/6, mouse, plasma, 0.5 mg; mice, intravenous; read-out: plasma t1/2 of ligand
Experimental: (i) Ligand (0.5 mg/animal) dissolved in PBS or saline (200 μl) was injected intravenously into the tail vein of six male; 23-27 week old wild-type C57BL/6 mice. Up to two blood samples plus a terminal sample per mouse were collected at each time point up to 180 minutes.
(ii) Serum was prepared and ˜200 ng of internal standard (either ^2H4-BPC6 or BPC9) added. Serum proteins were precipitated with 4 volumes of either ice cold methanol or acetonitrile. The supernatant was dried under vacuum and re-dissolved in 0.1% v/v aqueous formic acid. (iii) Samples were chromatographed on a Phenomenex Aqua column using a gradient of 0.1% v/v formic acid-60% v/v acetonitrile in formic acid, and the eluate passed into the positive ion source of a Quattro II triple quadrupole mass spectrometer. The MRM transitions used were m/z 449.3→390.2 and 453.→394.2 (BPC6) and m/z 477.3→418.3, […] (BPC8).
(iv) Ligand concentrations were measured against an extracted standard curve and were plotted using Sigmaplot (v14) and fitted to a 2-parameter exponential decay.

CRP [2] = molecular target: T1, CRP (Homo sapiens, UniProt P02741); test: Stability of pre-formed CRP/ligand complexes in vitro (mouse plasma, whole blood, shear forces, dialysis); parameters: from tissue
T1 sequence (P02741 19-224): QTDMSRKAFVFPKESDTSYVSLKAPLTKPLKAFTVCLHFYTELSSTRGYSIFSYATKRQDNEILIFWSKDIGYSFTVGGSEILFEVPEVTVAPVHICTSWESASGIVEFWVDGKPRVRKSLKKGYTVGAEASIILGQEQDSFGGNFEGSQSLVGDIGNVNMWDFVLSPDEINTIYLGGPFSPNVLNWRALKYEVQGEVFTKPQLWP
Experimental: Pre-formed complexes of CRP/Pk-023 (with 5-fold molar excess of ligand over CRP pentamer), or CRP alone, were co-incubated, unstirred, in TC buffer (control), fresh mouse heparinised plasma or fresh heparinised whole mouse blood at 37° C. for up to 3 hours. CRP concentrations in plasma were then measured by Roche immunoassay. […] On addition of EDTA to dissociate CRP ligand binding, Roche CRP concentrations in all CRP/Pk-023 samples recovered to ˜70% of control values showing that the protein was still present and immunoreactive.
To determine whether shear forces might have an effect on stability, pre-formed CRP/Pk-023 complexes prepared with either a 2.5- or 5-fold molar excess of ligand were added to heparinised mouse plasma and stirred rapidly at room temperature for 3 h.
CRP/Pk-023 complexes formed at 5-fold ligand excess were stable during exhaustive dialysis against TC buffer for up to 96 h at room temperature, as shown by the Roche CRP assay values. After 30 h, ˜8% of the complex had dissociated, with a further 2.5% dissociation at 96 h. Similarly, CRP/Pk-023 complexes pre-formed in serum were stable during dialysis against TC buffer for 24 h at room temperature with shear forces produced by a magnetic stir bar inserted into the dialysis tubing. ^125I-CRP was included to correct for dilution account for any effects of dilution.

CRP [3] = molecular target: T1, CRP; test: Roche immunoturbidimetric assay: pure CRP; format: binding; parameters: The final concentrations were 0.73 μM native pentameric CRP; from tissue; settings: pure CRP in TC buffer; read-out: IC50 (μM), SD; inhibition of Roche CRP immunoreactivity
How it was run: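 Purified human CRP (final 0.73 μM pentamer) incubated 1 h at 37° C with ligand (final 625-0.03 μM) in TC buffer. Remaining CRP quantified by Roche microparticle-enhanced immunoturbidimetric assay, one antibody recognising the ligand-binding B-face, as % of buffer control; EC50 from 4-parameter logistic fit.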

Compound: O=P(O)(OCCCCCCCCOP(=O)(O)O[C@@H]1CN2CCC1CC2)O[C@@H]1CN2CCC1CC2 [Pk-023, [(3S)-1-azabicyclo[2.2.2]octan-3-yloxy]({[8-({[(3S)-1-azabicyclo[2.2.2]octan-3-yloxy](hydroxy)phosphoryl}oxy)octyl]oxy})phosphinic acid]
- half-life [1]: ~15 min
- Stability of complex to shear forces (Roche CRP reactivity) (CRP [2]; 2.5- or 5-fold ligand excess, heparinised mouse plasma, stirred rapidly, room temperature, 3 h): stable throughout the experiment
- Complex dissociated during dialysis against TC buffer (CRP [2]; 5-fold ligand excess, room temperature, after 30 h): ~8%
- Stability of pre-formed CRP/ligand complex (Roche CRP) (CRP [2]; 5-fold ligand excess, TC buffer, mouse heparinised plasma or whole mouse blood, 37° C., up to 3 hours): stable throughout the experiment
- Roche CRP concentration recovered on addition of EDTA (CRP [2]; after incubation in mouse plasma/whole blood): ~70 % of control values
- Further dissociation of complex during dialysis (CRP [2]; at 96 h): 2.5%
- Stability of complexes pre-formed in serum during dialysis (CRP [2]; dialysis against TC buffer 24 h, room temperature, with shear forces): stable
- IC50 (CRP [3]): 0.6 µM

Reference: patent publication US20230118142A1, “AGENTS FOR USE IN THE TREATMENT OF TISSUE DAMAGE” (UCL BUSINESS LTD, priority 2020, published 2023)
